Laboratory results taken from patent publication US12528790B2, “Amide derivative having antiviral activity” (Shionogi & Co., Ltd., priority 2020, dated 2026).
Like-named read-outs stand apart in the source and are kept apart here.

Tests used:
RSV A2 strain = experiment: In vitro CPE (CytoPathic Effect) inhibition effect evaluation test, RSV type A; type: cell-based
In short: (§1)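 HEp-2 cells (2.4×10^5 cells/mL, 2% FBS E-MEM) were infected with RSV alongside 3-fold compound dilutions and incubated at 37 °C, 4 days for A2 and 5 days for B Wash/18537. Viable cells quantified by CellTiter-Glo 2.0 luminescence; EC50 by nonlinear regression as 50% CPE inhibition.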

[1] = test system: RSV B (Wash/18537 strain); experiment: In vitro CPE (CytoPathic Effect) inhibition effect evaluation test, RSV type B; type: cell-based
In short: as §1

[2] = human respiratory syncytial virus, inhibitory effect against RSV type A (RSV A2 strain), HEp-2 cells, CPE inhibition, read-out: EC50
[3] = human respiratory syncytial virus, inhibitory effect against RSV type B, CPE inhibition, read-out: EC50

SMILES	EC50 (RSV A2 strain; [2])	EC50 [1, 3]	also measured
O=C(NC1(C(=O)O)C2CC3CC(C2)CC1C3)c1cnc(-c2cn(C3CCC(F)(F)CC3)c3cc(OC4CCN(c5ncc(F)cn5)CC4)ccc23)nc1C(F)(F)F (stereo not drawn) [Compound I-237]	< 10 nM	< 10 nM	–
O=C(NC1(C(=O)O)C2CC3CC(C2)CC1C3)c1cnc(-c2cn(C3CCC(F)(F)CC3)c3cc(OC4CCN(c5ncccn5)CC4)ccc23)nc1C(F)(F)F (stereo not drawn) [Compound I-239]	< 10 nM	< 10 nM	–
Cc1nc(-c2cn(C3CCOCC3)c3cc(OC4CCN(c5ncccn5)CC4)ccc23)nc(C(F)(F)F)c1C(=O)NC1(C(=O)O)C2CC3CC(C2)CC1C3 (stereo not drawn) [Compound I-245]	< 10 nM	< 10 nM	–
O=C(NC1(C(=O)O)C2CC3CC(C2)CC1C3)c1cnc(-c2cn(C3CCC(F)(F)CC3)c3cc(OC4CCN(C5CC(F)(F)C5)CC4)ccc23)nc1C(F)(F)F (stereo not drawn) [Compound I-249]	< 10 nM	10 to 100 nM	–
COC1CC(n2cc(-c3ccc(C(=O)NC4(C(=O)O)C5CC6CC(C5)CC4C6)c(C(F)(F)F)n3)c3ccc(OC4CCN(c5ncccn5)CC4)cc32)C1 (stereo not drawn) [Compound I-250]	< 10 nM	< 10 nM	–
O=C(NC1(C(=O)O)C2CC3CC(C2)CC1C3)c1cnc(-c2cn(C3CCC(F)(F)CC3)c3cc(OC4CCC5(CC4)COC5)ccc23)nc1C(F)(F)F (stereo not drawn) [Compound I-256]	< 10 nM	< 10 nM	–
O=C(NC1(C(=O)O)C2CC3CC(C2)CC1C3)c1cnc(-c2cn(C3CCC(F)(F)CC3)c3cc(OC4CCN(c5ncccn5)CC4)ncc23)nc1C(F)(F)F (stereo not drawn) [Compound I-268]	–	–	EC50 (RSV A2 strain; human respiratory syncytial virus, HEp-2, 96 h, read-out: EC50, inhibitory effect against RSV type A (CPE inhibition)): 1.4 nM; EC50 ([1]; human respiratory syncytial virus, HEp-2, 120 h, HEp-2 cells, RSV B (Wash/18537 strain), 5 days, CellTiter-Glo, read-out: EC50, inhibitory effect against RSV type B (CPE inhibition)): 4.3 nM
O=C(NC1(C(=O)O)C2CC3CC(C2)CC1C3)c1ccc(-c2cn(S(=O)(=O)C3CC3)c3cc(OC4CCN(c5ncccn5)CC4)ccc23)nc1C(F)(F)F (stereo not drawn) [Compound I-272]	< 10 nM	10 to 100 nM	–
O=C(NC1(C(=O)O)C2CC3CC(C2)CC1C3)c1cnc(N2CC3(CCOCC3)c3cc(OC4CCN(c5ncc(F)cn5)CC4)ccc32)nc1C(F)(F)F (stereo not drawn) [Compound I-275]	< 10 nM	< 10 nM	–
N#Cc1cc(C(=O)NC2(C(=O)O)C3CC4CC(C3)CC2C4)c(C(F)(F)F)nc1N1CC2(CCOCC2)c2cc(OC3CCN(c4ncccn4)CC3)ccc21 (stereo not drawn) [Compound I-276]	< 10 nM	< 10 nM	–
O=C(NC1(C(=O)O)C2CC3CC(C2)CC1C3)c1cnc(N2CC3(CCOCC3)c3cc(C(=O)N4CCN(c5ncccn5)CC4)ccc32)nc1C(F)(F)F (stereo not drawn) [Compound I-353]	–	–	EC50 (RSV A2 strain; inhibitory effect against RSV type A (RSV A2 strain), HEp-2 cells, CPE inhibition, read-out: EC50): < 10 nM; EC50 ([1]; inhibitory effect against RSV type B, CPE inhibition, read-out: EC50): < 10 nM
O=C(NC1(C(=O)O)C2CC3CC(C2)CC1C3)c1cnc(-c2cn(C3CCC(F)(F)CC3)c3cc(OC4CCC5(CC4)CN(CC(F)(F)F)C5)ccc23)nc1C(F)(F)F (stereo not drawn) [Compound I-370]	< 10 nM	10 to 100 nM	–
O=C(NC1(C(=O)O)C2CC3CC(C2)CC1C3)c1cnc(-c2cn(C3CC3)c3cc(OC4CCN(c5ncc(F)cn5)CC4)ccc23)nc1C(F)(F)F (stereo not drawn) [Compound I-379]	< 10 nM	< 10 nM	–
CC(F)(F)c1nc(N2CC3(CCCCC3)c3cc(OC4CCN(c5ncccn5)CC4)ccc32)ncc1C(=O)NC1(C(=O)O)C2CC3CC(C2)CC1C3 (stereo not drawn) [Compound I-380]	< 10 nM	< 10 nM	–
O=C(NC1(C(=O)O)C2CC3CC(C2)CC1C3)c1cnc(N2CC3(CCCCC3)c3cc(OC4CCN(CC(F)(F)F)CC4)ccc32)nc1C(F)(F)F (stereo not drawn) [Compound I-382]	< 10 nM	10 to 100 nM	–
O=C(NC1(C(=O)O)C2CC3CC(C2)CC1C3)c1cnc(N2CC3(CCOCC3)c3cc(OC4CCN(CC(F)(F)F)CC4)ccc32)nc1C(F)(F)F (stereo not drawn) [Compound I-384]	< 10 nM	< 10 nM	–
O=C(NC1(C(=O)O)C2CC3CC(C2)CC1C3)c1cnc(N2CC3(CCCCC3)c3cc(OC4CCN(C5CC(F)(F)C5)CC4)ccc32)nc1C(F)(F)F (stereo not drawn) [Compound I-393]	< 10 nM	10 to 100 nM	–
CC(F)(F)c1nc(N2CC3(CCCCC3)c3cc(OC4CCN(c5ncc(F)cn5)CC4)ccc32)ncc1C(=O)NC1(C(=O)O)C2CC3CC(C2)CC1C3 (stereo not drawn) [Compound I-396]	< 10 nM	< 10 nM	–
O=C(NC1(C(=O)O)C2CC3CC(C2)CC1C3)c1cnc(N2CC3(CCCCC3)c3cc(OC4CCC5(CC4)COC5)ccc32)nc1C(F)(F)F (stereo not drawn) [Compound I-399]	< 10 nM	10 to 100 nM	–
CC(F)(F)c1nc(N2CC3(CCCCC3)c3cc(OC4CCN(C5CC(F)(F)C5)CC4)ccc32)ncc1C(=O)NC1(C(=O)O)C2CC3CC(C2)CC1C3 (stereo not drawn) [Compound I-400]	< 10 nM	10 to 100 nM	–
CC(F)(F)c1nc(N2CC3(CCCCC3)c3cc(OC4CCC5(CC4)COC5)ccc32)ncc1C(=O)NC1(C(=O)O)C2CC3CC(C2)CC1C3 (stereo not drawn) [Compound I-401]	< 10 nM	10 to 100 nM	–
